Test results taken from PubChem BioAssay (NCI).
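A five-concentration, 48-hour dose response in 96-well plates underlies each endpoint, interpolated linearly between surrounding concentrations. Here, GI50 denotes the concentration required for 50% inhibition of growth. TGI marks complete inhibition of growth.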

Columns and labels:
Assay in all cases: NCI tumour cell line growth inhibition, 48 h
[1] = test system: IGROV1 ovarian
[2] = test system: SN12C renal
[3] = test system: SNB-75 CNS
[4] = test system: OVCAR-8 ovarian
[5] = test system: A498 renal
[6] = test system: 786-0 renal
[7] = test system: U251 CNS
[8] = test system: HS 578T breast
[9] = test system: COLO 205 colon
[10] = test system: HT29 colon
[11] = test system: OVCAR-3 ovarian
[12] = test system: SK-MEL-28 melanoma
[13] = test system: SR leukemia
[14] = test system: NCI-H226 lung
[15] = test system: NCI/ADR-RES ovarian
[16] = test system: SNB-19 CNS
[17] = test system: NCI-H460 lung
[18] = test system: SF-539 CNS
[19] = test system: T-47D breast
[20] = test system: SK-OV-3 ovarian
[21] = test system: RPMI-8226 leukemia
[22] = test system: MCF7 breast
[23] = test system: K-562 leukemia
[24] = test system: SF-295 CNS
[25] = test system: CCRF-CEM leukemia
[26] = test system: UACC-257 melanoma
[27] = test system: M14 melanoma
[28] = test system: MOLT-4 leukemia
[29] = test system: ACHN renal
[30] = test system: TK-10 renal
[31] = test system: HOP-62 NSCLC
[32] = test system: MDA-MB-435
[33] = test system: UACC-62 melanoma
[34] = test system: NCI-H23 lung
[35] = test system: BT-549 breast
[36] = test system: DU-145 prostate
[37] = test system: HCT-116 colon
[38] = test system: CAKI-1 renal
[39] = test system: NCI-H522 lung
[40] = test system: A549 NSCLC
[41] = test system: HCT-15 colon
[42] = test system: RXF 393 renal
[43] = test system: MALME-3M melanoma
[44] = test system: OVCAR-4 ovarian
[45] = test system: UO-31 renal
[46] = test system: HL-60(TB) leukemia
[47] = test system: KM12 colon
[48] = test system: PC-3 prostate
[49] = test system: SW-620 colon
[50] = test system: SF-268 CNS
[51] = test system: SK-MEL-5 melanoma
[52] = test system: HCC-2998 colon
[53] = test system: OVCAR-5 ovarian
[54] = test system: MDA-MB-231 breast

Question: Which GI50 [1] does the source give for `COc1ccc(-c2cc(/C=C3\C(=O)Nc4ccc(Cl)cc43)[nH]n2)cc1` here?
Answer: 5 µM

Question: And the TGI [1]?
Answer: 17.9 µM

Question: And the GI50 [2]?
Answer: 5.51 µM

Question: And the TGI [2]?
Answer: 18.2 µM

Question: And the GI50 [3]?
Answer: 2260 nM

Question: And the TGI [3]?
Answer: 8.49 µM

Question: And the GI50 [4]?
Answer: 6.59 µM

Question: What about the TGI [4] of the same molecule?
Answer: 20 µM

Question: What about the GI50 [5] of the same molecule?
Answer: 3.83 µM

Question: What about the TGI [5] of the same molecule?
Answer: 16.3 µM

Question: What about the GI50 [6] of the same molecule?
Answer: 5.28 µM

Question: What about the TGI [6] of the same molecule?
Answer: 17.4 µM

Question: What about the GI50 [7] of the same molecule?
Answer: 3.16 µM

Question: What about the TGI [7] of the same molecule?
Answer: 12.1 µM

Question: And the GI50 [8]?
Answer: 3.52 µM

Question: What about the TGI [8] of the same molecule?
Answer: 22.4 µM

Question: What about the GI50 [9] of the same molecule?
Answer: 2080 nM

Question: What about the TGI [9] of the same molecule?
Answer: 4.7 µM

Question: What about the GI50 [10] of the same molecule?
Answer: 3.35 µM

Question: What about the TGI [10] of the same molecule?
Answer: 10.9 µM

Question: What about the GI50 [11] of the same molecule?
Answer: 3.05 µM

Question: And the TGI [11]?
Answer: 8.42 µM

Question: And the GI50 [12]?
Answer: 6.6 µM

Question: What about the TGI [12] of the same molecule?
Answer: 19.5 µM

Question: What about the GI50 [13] of the same molecule?
Answer: 4.24 µM

Question: What about the TGI [13] of the same molecule?
Answer: 20.1 µM

Question: And the GI50 [14]?
Answer: 12.1 µM

Question: And the TGI [14]?
Answer: 28.1 µM

Question: What about the GI50 [15] of the same molecule?
Answer: 3.85 µM

Question: And the TGI [15]?
Answer: 17.7 µM

Question: And the GI50 [16]?
Answer: 10.4 µM

Question: What about the TGI [16] of the same molecule?
Answer: 28 µM

Question: What about the GI50 [17] of the same molecule?
Answer: 3.81 µM

Question: And the TGI [17]?
Answer: 13 µM

Question: What about the GI50 [18] of the same molecule?
Answer: 2630 nM

Question: What about the TGI [18] of the same molecule?
Answer: 7.68 µM

Question: And the GI50 [19]?
Answer: 3.62 µM

Question: What about the TGI [19] of the same molecule?
Answer: 14.6 µM

Question: What about the GI50 [20] of the same molecule?
Answer: 4.07 µM

Question: And the TGI [20]?
Answer: 13.8 µM

Question: What about the GI50 [21] of the same molecule?
Answer: 4.04 µM

Question: And the TGI [21]?
Answer: 18 µM

Question: What about the GI50 [22] of the same molecule?
Answer: 2430 nM

Question: And the TGI [22]?
Answer: 11.8 µM

Question: And the GI50 [23]?
Answer: 2560 nM

Question: And the TGI [23]?
Answer: 13.1 µM

Question: What about the GI50 [24] of the same molecule?
Answer: 3.29 µM

Question: And the TGI [24]?
Answer: 12.8 µM

Question: And the GI50 [25]?
Answer: 3.32 µM

Question: What about the TGI [25] of the same molecule?
Answer: 16.6 µM

Question: What about the GI50 [26] of the same molecule?
Answer: 8.78 µM

Question: What about the TGI [26] of the same molecule?
Answer: 21.4 µM

Question: What about the GI50 [27] of the same molecule?
Answer: 4.02 µM

Question: And the TGI [27]?
Answer: 15.2 µM

Question: What about the GI50 [28] of the same molecule?
Answer: 5.13 µM

Question: What about the TGI [28] of the same molecule?
Answer: 25.6 µM

Question: And the GI50 [29]?
Answer: 5.71 µM

Question: What about the TGI [29] of the same molecule?
Answer: 18.4 µM

Question: And the GI50 [30]?
Answer: 8.8 µM

Question: What about the TGI [30] of the same molecule?
Answer: 20.7 µM

Question: What about the GI50 [31] of the same molecule?
Answer: 4.39 µM

Question: And the TGI [31]?
Answer: 15.8 µM

Question: What about the GI50 [32] of the same molecule?
Answer: 1860 nM

Question: And the TGI [32]?
Answer: 4.47 µM

Question: And the GI50 [33]?
Answer: 5.56 µM

Question: And the TGI [33]?
Answer: 18.5 µM

Question: And the GI50 [34]?
Answer: 3.73 µM

Question: And the TGI [34]?
Answer: 16.3 µM

Question: What about the GI50 [35] of the same molecule?
Answer: 6.85 µM

Question: And the TGI [35]?
Answer: 19.3 µM

Question: What about the GI50 [36] of the same molecule?
Answer: 3.89 µM

Question: And the TGI [36]?
Answer: 13.6 µM

Question: What about the GI50 [37] of the same molecule?
Answer: 4.13 µM

Question: What about the TGI [37] of the same molecule?
Answer: 14.1 µM

Question: What about the GI50 [38] of the same molecule?
Answer: 3.31 µM

Question: And the TGI [38]?
Answer: 13.8 µM

Question: And the GI50 [39]?
Answer: 2030 nM

Question: What about the TGI [39] of the same molecule?
Answer: 5.67 µM

Question: And the GI50 [40]?
Answer: 6.54 µM

Question: What about the TGI [40] of the same molecule?
Answer: 18.5 µM

Question: What about the GI50 [41] of the same molecule?
Answer: 2800 nM

Question: What about the TGI [41] of the same molecule?
Answer: 14.2 µM

Question: And the GI50 [42]?
Answer: 5.61 µM

Question: And the TGI [42]?
Answer: 19.1 µM

Question: What about the GI50 [43] of the same molecule?
Answer: 6.85 µM

Question: What about the TGI [43] of the same molecule?
Answer: 20 µM

Question: And the GI50 [44]?
Answer: 4.31 µM

Question: What about the TGI [44] of the same molecule?
Answer: 17.3 µM

Question: And the GI50 [45]?
Answer: 4.02 µM

Question: What about the TGI [45] of the same molecule?
Answer: 16.9 µM

Question: And the GI50 [46]?
Answer: 3.04 µM

Question: And the TGI [46]?
Answer: 10.4 µM

Question: What about the GI50 [47] of the same molecule?
Answer: 3.96 µM

Question: And the TGI [47]?
Answer: 19.6 µM

Question: And the GI50 [48]?
Answer: 4.03 µM

Question: And the TGI [48]?
Answer: 15.9 µM

Question: What about the GI50 [49] of the same molecule?
Answer: 4.01 µM

Question: And the TGI [49]?
Answer: 15.5 µM

Question: What about the GI50 [50] of the same molecule?
Answer: 6.48 µM

Question: And the TGI [50]?
Answer: 19.1 µM

Question: And the GI50 [51]?
Answer: 5.17 µM

Question: What about the TGI [51] of the same molecule?
Answer: 23.6 µM

Question: What about the GI50 [52] of the same molecule?
Answer: 9.4 µM

Question: And the TGI [52]?
Answer: 24.2 µM

Question: What about the GI50 [53] of the same molecule?
Answer: 8.67 µM

Question: And the TGI [53]?
Answer: 21.1 µM

Question: And the GI50 [54]?
Answer: 3.58 µM

Question: What about the TGI [54] of the same molecule?
Answer: 15.5 µM
